Series [1] has as its system TNFα release in THP-1 cells. As to the kind of experiment: LPS-induced TNFα release in THP-1 cells. It counts as cell-based, human. The settings on record: Homo sapiens. Put shortly:
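Human monocytic THP-1 cells stimulated with 3 μg/mL E. coli LPS for 4 hr; supernatant TNFα measured by sandwich ELISA. Inhibition at each concentration versus vehicle control, IC50 from concentration-response curve.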

In the next series the target is T1, p38 MAPKγ (MAPK12) (Homo sapiens, UniProt P53778).
T1 construct: purchased Invitrogen
T1 sequence (P53778 1-367): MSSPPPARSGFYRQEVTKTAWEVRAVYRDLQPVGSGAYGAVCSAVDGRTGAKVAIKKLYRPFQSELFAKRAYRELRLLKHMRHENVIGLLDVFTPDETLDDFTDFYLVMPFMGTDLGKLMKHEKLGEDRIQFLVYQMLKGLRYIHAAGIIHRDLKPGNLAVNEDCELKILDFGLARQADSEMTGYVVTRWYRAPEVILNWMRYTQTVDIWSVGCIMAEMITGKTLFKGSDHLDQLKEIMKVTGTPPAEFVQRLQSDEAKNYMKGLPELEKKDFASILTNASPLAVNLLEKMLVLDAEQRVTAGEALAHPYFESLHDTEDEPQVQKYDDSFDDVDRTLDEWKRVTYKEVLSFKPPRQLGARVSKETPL
The series can be described thus: Enzyme inhibition assay (FRET, Z-LYTE), p38 MAPKγ. It counts as biochemical. Particulars: read-out: Enzyme Inhibition IC50 p38γ. Put shortly:
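Recombinant phosphorylated p38 MAPKγ preincubated 2 h at RT with compound in HEPES buffer, then 2 μM FRET peptide and 100 μM ATP added for 1 h; protease development 1 h. Coumarin/fluorescein emission ratio gave phosphorylation; IC50 from concentration-response versus uninhibited control.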

In series [2] the target is T2, p38 MAPKα isoform (MAPK14) (Homo sapiens, UniProt Q16539).
T2 construct: purchased Invitrogen
As to the kind of experiment: Enzyme inhibition assay (FRET, Z-LYTE), p38 MAPKα via MAPKAP-K2 activation. It counts as biochemical. Particulars: read-out: Enzyme Inhibition IC50 p38α. Put shortly:
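Recombinant p38 MAPKα was preincubated with compound for 2 h at RT. Its activity was measured indirectly through activation/phosphorylation of downstream MAPKAP-K2, with a Z-LYTE FRET peptide read-out (coumarin/fluorescein ratio) after a 1 h development step. IC50 came from concentration-response curves of percent inhibition versus an uninhibited control.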

The test system of series [3] is ICAM-1 induction in BEAS2B cells. The series can be described thus: Poly I:C-induced ICAM-1 induction in BEAS2B cells. It counts as cell-based, human. The settings on record: Homo sapiens, BEAS-2B, read-out: PolyIC/ICAM1 IC50 BEAS2B. Put shortly:
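Human bronchial epithelial BEAS2B cells were pre-incubated with compound for 2 hr, then transfected with 1 μg/mL poly I:C. After 18 hr, surface ICAM-1 was measured by cell-based ELISA (OD450-655) and normalized to crystal violet cell counts (OD595). IC50 came from inhibition versus vehicle across the concentration-response curve.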

The subject of another series is Balb/c mice. As to the kind of experiment: LPS-induced neutrophil accumulation in mice. The format is in vivo. As for the experimental part: LPS-Induced Neutrophil Accumulation in Mice
Non-fasted Balb/c mice were dosed by the intra tracheal route with either vehicle, or the test substance at the indicated times (within the range 2-8 hr) before stimulation of the inflammatory response by application of an LPS challenge. At T=0, mice were placed into an exposure chamber and exposed to LPS. After a further 8 hr the animals were anesthetized, their tracheas cannulated and BALF extracted by infusing and then withdrawing from their lungs 1.0 mL of PBS via the tracheal catheter. Total and differential white cell counts in the BALF samples were measured using a Neubaur haemocytometer. Cytospin smears of the BALF samples were prepared by centrifugation at 200 rpm for 5 min at RT and stained using a DiffQuik stain system (Dade Behring). Cells were counted using oil immersion microscopy.

The test system of series [4] is TNFα release in d-U937 cells. As to the kind of experiment: LPS-induced TNFα release in d-U937 cells. It counts as cell-based, human. The settings on record: Homo sapiens, dU937, relative to 10 μg/mL BIRB796, read-out: LPS/TNFα REC50 d-U937. Put shortly: (§1)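 PMA-differentiated (100 ng/ml, 48–72 hr) U937 macrophage-type cells pre-incubated 2 hr with compound, then stimulated 4 hr with 0.1 μg/mL E. coli O111:B4 LPS; supernatant TNFα and IL-8 measured by sandwich ELISA. TNFα inhibition expressed relative to 10 μg/mL BIRB796, giving REC50; IL-8 inhibition versus vehicle, giving IC50.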

Series [5] relates to Differentiated U937 cells. As to the kind of experiment: Cell viability MTT assay. The format is cell-based, human. Particulars: negative = apparent increase in viability; for MTT Assay (Viability) 4 h d-U937, percentage loss of cell viability: 4 hr in 5% FCS; for MTT Assay (Viability) 24 h d-U937, percentage loss of cell viability: 24 h in 10% FCS. Put shortly:
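Differentiated U937 cells pre-incubated with compound either 4 hr in 5% FCS or 24 h in 10% FCS, then 1 hr MTT. Formazan dissolved in DMSO, absorbance at 550 nm. Percentage viability loss relative to 0.5% DMSO vehicle; apparent increases appear as negative percentages.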
(In general: Tetrazolium assays rely on reduction of a dye to a coloured formazan, in cell work by metabolically active cells.)

Series [6] relates to IL-8 release in d-U937 cells. The series can be described thus: LPS-induced IL-8 release in d-U937 cells. Particulars: Homo sapiens, dU937. The format is cell-based, human. Put shortly: as §1
[7] abbreviates: Table 5, 0.2 mg/mL, 8 h pre-dose.

T2 sequence (Q16539 whole entry, canonical isoform): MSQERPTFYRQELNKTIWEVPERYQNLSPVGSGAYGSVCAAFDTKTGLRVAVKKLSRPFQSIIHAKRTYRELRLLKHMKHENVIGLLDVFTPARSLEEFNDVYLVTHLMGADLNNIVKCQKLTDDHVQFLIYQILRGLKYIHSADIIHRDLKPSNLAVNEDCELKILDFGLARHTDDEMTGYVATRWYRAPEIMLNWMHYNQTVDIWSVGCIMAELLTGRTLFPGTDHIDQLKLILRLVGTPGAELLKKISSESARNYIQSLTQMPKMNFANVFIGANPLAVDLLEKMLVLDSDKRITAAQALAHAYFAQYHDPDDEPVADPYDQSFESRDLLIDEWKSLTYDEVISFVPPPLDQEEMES

For `Cc1ccc(-n2nc(C(C)(C)C)cc2NC(=O)Nc2ccc(Oc3cc(NC(=O)NCCN(C)C)ncn3)c(Cl)c2Cl)cc1` [Example 24, 1-(3-tert-Butyl-1-p-tolyl-1H-pyrazol-5-yl)-3-(2,3-dichloro-4-(6-(3-(2-(dimethylamino)ethyl)ureido)pyrimidin-4-yloxy)phenyl)urea], the IC50 in series [1] is 1.7 nM; on p38 MAPKγ (MAPK12), 46.3 nM; in series [2], 5.7 nM; in series [3], 10.5 nM; in series [6], 1.1 nM. For the same compound, in the series with Balb/c mice (setting [7]), the “% inhibition of Influx” value was 9%. Besides, the “Neutrophil numbers in BAL 8 h pre-dose” value with Balb/c mice (setting [7]) is recorded as 15.71 ± 2.48 × 10^5/mL. Also, the “inhibitory effects versus neutrophil influx into the BALF” value in the series on Balb/c mice (dosed 8 hr before the inflammatory stimulus) was “inhibitory effects”. Moreover, the EC50 in series [4] is 1.7 nM. Moreover, the “MTT Assay (Viability) 4 h d-U937, percentage loss of cell viability” value in series [5] is given as −17.7%. Besides, the “MTT Assay (Viability) 24 h d-U937, percentage loss of cell viability” value in series [5] was 39.5%.

With `COCC(=O)Nc1nccc(Oc2ccc(NC(=O)Nc3cc(C(C)(C)C)nn3-c3ccc(CO)cc3)c(Cl)c2Cl)n1` [Example 94, N-(4-(4-(3-(3-tert-butyl-1-(4-hydroxymethylphenyl)-1H-pyrazol-5-yl)ureido)-2,3-dichlorophenoxy)pyrimidin-2-yl)-2-methoxyacetamide], the IC50 in series [1] was 1 nM; at p38 MAPKγ (MAPK12) it was 123 nM; in series [2] it was 17 nM; in series [3], 8.9 nM; in series [6], 21.6 nM. Besides, the EC50 in series [4] stood at 0.6 nM. In series [5], the “MTT Assay (Viability) 4 h d-U937, percentage loss of cell viability” value is listed as 2.3%. Also, in series [5], the “MTT Assay (Viability) 24 h d-U937, percentage loss of cell viability” value was 76.6%.

For `CNC(=O)Nc1cc(Oc2ccc(NC(=O)Nc3cc(C(C)(C)C)nn3-c3ccc(C)cc3)c(Cl)c2Cl)ncn1` [Example 95, 1-(3-tert-butyl-1-p-tolyl-1H-pyrazol-5-yl)-3-(2,3-dichloro-4-(6-(3-methylureido)pyrimidin-4-yloxy)phenyl)urea], the IC50 was 1.6 nM in series [1]; 172 nM at p38 MAPKγ (MAPK12); 29.9 nM in series [2]; 1.1 nM in series [3]; 0.2 nM in series [6]. The EC50 in series [4] was 0.2 nM. Moreover, the “MTT Assay (Viability) 4 h d-U937, percentage loss of cell viability” value in series [5] is listed as −38.0%. In addition, in series [5], the “MTT Assay (Viability) 24 h d-U937, percentage loss of cell viability” value is reported as 22.5%.

`CNC(=O)Nc1nccc(Oc2ccc(NC(=O)Nc3cc(C(C)(C)C)nn3-c3ccc(C)cc3)c(Cl)c2Cl)n1` [Example 96, 1-(3-tert-butyl-1-p-tolyl-1H-pyrazol-5-yl)-3-(2,3-dichloro-4-(2-(3-methylureido)pyrimidin-4-yloxy)phenyl)urea]: the IC50 in series [1] amounted to 2.6 nM; at p38 MAPKγ (MAPK12), 152 nM; in series [2], 21.2 nM; in series [3], 30 nM; in series [6] it was 1.9 nM. In series [4], the EC50 turned out to be 0.2 nM. In addition, the “MTT Assay (Viability) 4 h d-U937, percentage loss of cell viability” value in series [5] is recorded as −16.1%. Moreover, the “MTT Assay (Viability) 24 h d-U937, percentage loss of cell viability” value in series [5] is −13.4%.

For `CNC(=O)Nc1cc(Oc2ccc(NC(=O)Nc3cc(C(C)(C)C)nn3-c3ccc(OC)cc3)c(Cl)c2Cl)ncn1` [Example 97, 1-(3-tert-butyl-1-(4-methoxyphenyl)-1H-pyrazol-5-yl)-3-(2,3-dichloro-4-(6-(3-methylureido)pyrimidin-4-yloxy)phenyl) urea], the IC50 in series [1] worked out at 1.4 nM; on p38 MAPKγ (MAPK12), 203 nM; in series [2] it was 33.2 nM; in series [3], 1.2 nM; in series [6], 0.1 nM. Further, in series [4], the EC50 was 0.1 nM. In series [5], the “MTT Assay (Viability) 4 h d-U937, percentage loss of cell viability” value is −27.2%. In addition, the “MTT Assay (Viability) 24 h d-U937, percentage loss of cell viability” value in series [5] is recorded as 32.9%.

Consider `CNC(=O)Nc1nccc(Oc2ccc(NC(=O)Nc3cc(C(C)(C)C)nn3-c3ccc(OC)cc3)c(Cl)c2Cl)n1` [Example 98, 1-(3-tert-butyl-1-(4-methoxyphenyl)-1H-pyrazol-5-yl)-3-(2,3-dichloro-4-(2-(3-methylureido)pyrimidin-4-yloxy)phenyl) urea], for which the IC50 stood at 1.4 nM in series [1]; 101 nM on p38 MAPKγ (MAPK12); 32.5 nM in series [2]; 4.1 nM in series [3]; 2.7 nM in series [6]. Besides, in series [4], the EC50 worked out at 1.9 nM. In addition, in series [5], the “MTT Assay (Viability) 4 h d-U937, percentage loss of cell viability” value is on record as −25.9%. Further, the “MTT Assay (Viability) 24 h d-U937, percentage loss of cell viability” value in series [5] is listed as −29.3%.

For the compound `CNC(=O)Nc1cc(Oc2ccc(NC(=O)Nc3cc(C(C)(C)C)nn3-c3ccc(CO)cc3)c(Cl)c2Cl)ncn1` [Example 99, 1-(3-tert-butyl-1-(4-hydroxymethylphenyl)-1H-pyrazol-5-yl)-3-(2,3-dichloro-4-(6-(3-methylureido)pyrimidin-4-yloxy)phenyl)urea], the IC50 in series [1] was 1.1 nM; on p38 MAPKγ (MAPK12), 145 nM; in series [2], 23.9 nM; in series [3], 3.2 nM; in series [6] it was 6.9 nM. In addition, the EC50 in series [4] stood at 1 nM. In addition, the “MTT Assay (Viability) 4 h d-U937, percentage loss of cell viability” value in series [5] is reported as 3.7%. Besides, the “MTT Assay (Viability) 24 h d-U937, percentage loss of cell viability” value in series [5] turned out to be 92.4%.

On to `COc1ccc(-n2nc(C(C)(C)C)cc2NC(=O)Nc2ccc(Oc3cc(NC(=O)NCCN(C)C)ncn3)c(Cl)c2Cl)cc1` [Example 100], for which the IC50 in series [1] stood at 0.7 nM; on p38 MAPKγ (MAPK12), 59.4 nM; in series [2] it was 5.3 nM; in series [3], 2 nM; in series [6], 12.9 nM. The EC50 in series [4] is 0.3 nM. The “MTT Assay (Viability) 4 h d-U937, percentage loss of cell viability” value in series [5] is given as −43.0%. Besides, in series [5], the “MTT Assay (Viability) 24 h d-U937, percentage loss of cell viability” value is on record as 17.2%.

As for `CN(C)CCNC(=O)Nc1cc(Oc2ccc(NC(=O)Nc3cc(C(C)(C)C)nn3-c3ccc(CO)cc3)c(Cl)c2Cl)ncn1` [Example 101, 1-(3-tert-butyl-1-(4-hydroxymethylphenyl)-1H-pyrazol-5-yl)-3-(2,3-dichloro-4-(6-(3-(2-(dimethylamino)ethyl)ureido)pyrimidin-4-yloxy)phenyl)urea], the IC50 came to 10.4 nM in series [1]; 57.7 nM on p38 MAPKγ (MAPK12); 5.6 nM in series [2]; 5.2 nM in series [3]; 3.1 nM in series [6]. Further, the EC50 in series [4] worked out at 1.1 nM. Moreover, the “MTT Assay (Viability) 4 h d-U937, percentage loss of cell viability” value in series [5] was found to be 2.8%. The “MTT Assay (Viability) 24 h d-U937, percentage loss of cell viability” value in series [5] was 73.9%.

Consider `CNC(=O)Nc1cc(COc2ccc(NC(=O)Nc3cc(C(C)(C)C)nn3-c3ccc(C)cc3)c(Cl)c2Cl)ccn1` [Example 102, 1-(4-((4-(3-(3-tert-butyl-1-p-tolyl-1H-pyrazol-5-yl)ureido)-2,3-dichlorophenoxy)methyl)pyridin-2-yl)-3-methylurea], for which the IC50 came out at 3.5 nM in series [1]; 140 nM at p38 MAPKγ (MAPK12); 44.1 nM in series [2]; 25.4 nM in series [3]; 4.8 nM in series [6]. In series [4], the EC50 worked out at 4.7 nM. In addition, the “MTT Assay (Viability) 4 h d-U937, percentage loss of cell viability” value in series [5] is −14.1%. Besides, the “MTT Assay (Viability) 24 h d-U937, percentage loss of cell viability” value in series [5] came to 8.8%.

For the origin of these results see US10000471B2, “Pyrazole P38 map kinase inhibitors” (Respivert Limited, priority 2010, dated 2018).
